PMC6076925, “Identification of Digestive Enzyme Inhibitors from Ludwigia octovalvis (Jacq.) P.H.Raven” (Evidence-based Complementary and Alternative Medicine : eCAM, 2018)

Tests used:
α–glucosidases [1] = assay: α–glucosidase inhibition assay (crude intestinal enzyme, corn starch substrate); assay type: biochemical, Wistar rats; settings: for Inhibition percentage α–glucosidases: mean ± standard deviation; for IC50: pure compounds, intestinal rat enzyme, starch as substrate
Experimental: The α–glucosidase assay was previously reported. In brief, corn starch (4 mg/mL) was digested by crude enzyme at 37°C during 10 minutes in a phosphate buffer pH 7 solution at a sample concentration of 0.6 mg/mL (dissolved in DMSO and water). Subsequently, released glucose was quantified by a glucose oxidase-based clinical reagent with the GOD–POD Trinder kit (Spinreact, Girona, Spain) following manufacturer's directions. All tests were performed in quadruplicate. Crude enzyme was obtained directly from healthy Wistar rats (12 h fasting). The small intestine was flushed several times with ice-cold isotonic buffer pH 7 and after the scraping of the mucosa, it was homogenized and stored at -20°C. Animal care and management were carried out under the guidelines of Mexican Official Standard NOM–062–ZOO–1999.
(§1) The logarithm of the concentration was plotted on the x-axis and the percentage of enzymatic inhibitory activity on the y-axis to obtain a semilogarithmic graphic.

[2] = target: T1, lipase from porcine pancreas (Sus scrofa, UniProt P00591); assay: Pancreatic lipase inhibition assay (DMPTB/DTNB); assay type: biochemical; settings: for inhibition at 250 µg/mL: sample at 0.25 mg/mL
T1 construct: lipase from porcine pancreas (PPL type II, 100–500 units/mg, L3126); purchased Sigma–Aldrich L3126; host or cells: porcine pancreas
T1 sequence (P00591 1-450): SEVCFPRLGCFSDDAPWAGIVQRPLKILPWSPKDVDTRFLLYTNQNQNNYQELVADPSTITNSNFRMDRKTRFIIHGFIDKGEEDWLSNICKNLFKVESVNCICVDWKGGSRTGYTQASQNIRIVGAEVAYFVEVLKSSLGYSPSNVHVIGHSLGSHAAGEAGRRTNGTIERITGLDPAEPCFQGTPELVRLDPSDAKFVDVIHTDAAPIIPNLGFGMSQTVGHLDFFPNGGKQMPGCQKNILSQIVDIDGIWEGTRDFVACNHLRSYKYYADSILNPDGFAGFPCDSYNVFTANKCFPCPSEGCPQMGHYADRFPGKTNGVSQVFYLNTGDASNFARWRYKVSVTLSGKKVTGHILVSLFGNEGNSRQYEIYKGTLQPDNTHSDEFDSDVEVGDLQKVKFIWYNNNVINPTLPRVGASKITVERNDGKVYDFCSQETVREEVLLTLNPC
Experimental: Pancreatic lipase inhibition assay was previously reported. Briefly, the absorbance of a mixture of DTNB 0.2 mM, DMPTB 0.8 mM, NaCl 0.1M, CaCl2 2 mM, Triton X–100 0.04%, porcine lipase 65 μg/mL, and the sample (dissolved in DMSO and water) at 0.25 mg/mL was followed with a Thermo Scientific Genesys 20 Visible Spectrophotometer (Fisher Scientific, 4001000, Hampton, NH) at 412 nm every 20 s for five minutes and plotted (Excel, Microsoft) to obtain initial velocity value. The lipase was prepared as a stock at 10 mg/mL in Tris–HCl 25 mM pH 6.2 with 0.1 M NaCl, SDS 2 mM, and 250 μL/mL of glycerol. A control assay without substrate was carried out to discard nonspecific reactions with DTMB. All reactions were tested by triplicate.
as §1

sucrase = target: sucrase; design: method as in doi:10.1016/j.foodchem.2010.03.075; settings: rat; read-out: IC50 inhibition of sucrase; cited from earlier work
maltase = target: maltase; design: method as in doi:10.1016/j.foodchem.2010.03.075; settings: rat; read-out: IC50 inhibition of maltase; cited from earlier work
α–glucosidases [3] = assay: Type of inhibition and Ki on α–glucosidases by Lineweaver–Burk plots (maltodextrin substrate); assay type: biochemical, Wistar rats; settings: for Type of enzymatic inhibition of α–glucosidases: Lineweaver–Burk plots
Experimental: (§2) The type of inhibition was determined quantifying the activity with and without inhibitor at different substrate concentrations (5–0.35 mg/mL for α–glucosidases and 0.05–0.2 μg/mL for pancreatic lipase) and comparing Lineweaver–Burk plots (inverse substrate concentration [S] and inverse reaction velocity V). In the case of the determination of α–glucosidase type of inhibition, the substrate was changed from corn starch to maltodextrin (MD100, Luzhou Bio–Chem Technology Co., Shandong, China), in order to have greater uniformity in the reaction.
Michaelis–Menten constant (Km) and apparent Km (Km^app) were obtained analysing the Lineweaver–Burk plots. These values allowed to obtain the inhibition constant (Ki) for competitive inhibitors using (2), where [I] represents inhibitor concentration.(2) Km^app=Km1+I/Ki

pancreatic lipase = target: T2, pancreatic lipase (Sus scrofa, UniProt P00591); assay: Type of inhibition on pancreatic lipase by Lineweaver–Burk plots; assay type: biochemical, porcine
T2 construct: lipase from porcine pancreas (PPL type II, 100–500 units/mg, L3126); purchased Sigma–Aldrich L3126; host or cells: porcine pancreas
T2 sequence (P00591 1-450): T1 sequence (P00591 1-450)
Experimental: as §2

[4] = mean ± standard deviation, read-out: Inhibition percentage Pancreatic lipase

inhibition at 250 µg/mL [2, 4] | IC50 (α–glucosidases [1]) | Inhibition percentage α–glucosidases (α–glucosidases [1]; sample at 0.6 mg/mL) | Type of enzymatic inhibition of α–glucosidases (α–glucosidases [3]) | Ki (α–glucosidases [3]; inhibitor at 625 μM) | Ki (α–glucosidases [3]; inhibitor at 1250 μM) | Structure (SMILES) | IC50 (sucrase) | IC50 (maltase) | other results
 |  |  |  |  |  | C[C@H]1O[C@H](O[C@H]2[C@H](O)[C@@H](O)[C@@H](O[C@H]3[C@H](O)[C@@H](O)C(O)O[C@@H]3CO)O[C@@H]2CO)[C@H](O)[C@@H](O)[C@@H]1N[C@H]1C=C(CO)[C@@H](O)[C@H](O)[C@H]1O (some centres unmarked) [Acarbose, acarbose, reference compound] |  |  | Inhibition percentage α–glucosidases (α–glucosidases [1]; evaluated at 5.8 µM): 50.0 ± 1.6∗ %
23.2 ± 3% | 832 µM | 98.4 ± 2.0% | competitive enzymatic inhibition | 636 µM | 315 µM | CCOC(=O)c1cc(O)c(O)c(O)c1 [C1F1 (ethyl gallate), ethyl gallate] | 660 µM | 415 µM | 
 | 969 µM | 98.9 ± 0.6% | competitive enzymatic inhibition | 436 µM | 208 µM | O=C(O)c1cc(O)c(O)c(O)c1 [C2F1 (gallic acid), gallic acid] | 130 µM | 390 µM | 
55.1 ± 3.1% |  |  |  |  |  | O=c1cc(-c2ccc(O)c(O)c2)oc2cc(O)c([C@@H]3O[C@H](CO)[C@@H](O)[C@H](O)[C@H]3O)c(O)c12 [C4F4–P (isoorientin), isoorientin] |  |  | IC50 ([2]; pure compound): 201 µM; Type of enzymatic inhibition of pancreatic lipase (pancreatic lipase): uncompetitive enzymatic inhibition
 | 1260 µM | 66.3 ± 5.6% |  |  |  | O=c1cc(-c2ccc(O)c(O)c2)oc2cc(O)cc(O)c12 [Luteolin, reference compound] |  |  | IC50 (α–glucosidases [1]; listed as luteolin): ~1260 µM
 |  |  |  |  |  | CCCCCCCCCCC[C@@H](C[C@@H]1OC(=O)[C@H]1CCCCCC)OC(=O)[C@H](CC(C)C)NC=O [Orlistat, orlistat, reference compound] |  |  | inhibition at 1.6 µM ([2]; evaluated at 1.6 µM, mean ± standard deviation, read-out: Inhibition percentage Pancreatic lipase): 50 ± 2.6%
